Measured values published in US9695155B2, “Herbicidal substituted pyrimidinyloxy benzene compounds” (E. I. DU PONT DE NEMOURS AND COMPANY, priority 2013, dated 2017).

How the values were obtained:
[1] = test system: lambsquarters; test: Test C postemergence; format: in vivo, Chenopodium album; details: for Lambsquarters plant response rating / Plant response rating, Lambsquarters: scale 0 to 100 (0 no effect, 100 complete control)
Outline: (§1)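 Visual ratings on a 0–100 scale (100 = complete control) were made versus untreated controls after 13–15 greenhouse days. Chemicals in a surfactant-containing non-phytotoxic solvent were applied either preemergence to seeds in loam–sand soil or postemergence to 1- to 4-leaf plants 2–18 cm tall.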

[2] = test system: soybean; test: Test C postemergence; format: in vivo, Glycine max; details: for Soybean plant response rating / Plant response rating, Soybean: scale 0 to 100 (0 no effect, 100 complete control)
Outline: as §1

[3] = test system: giant foxtail; test: Test C postemergence; format: in vivo, Setaria faberii; details: for Foxtail, Giant plant response rating / Plant response rating, Foxtail, Giant: scale 0 to 100 (0 no effect, 100 complete control)
Outline: as §1

[4] = test system: velvetleaf; test: Test C postemergence; format: in vivo, Abutilon theophrasti; details: for Velvetleaf plant response rating / Plant response rating, Velvetleaf: scale 0 to 100 (0 no effect, 100 complete control)
Outline: as §1

[5] = test system: wheat; test: Test A postemergence; format: in vivo, Triticum aestivum; details: 0 to 100 scale where 0 is no effect and 100 is complete control; for Wheat plant response rating: 125 g ai/ha; for Plant response rating, Wheat: 500 g ai/ha
Outline: (§2)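 Visual injury scored 0–100 (100 = complete control) against untreated controls about 10 days after treatment in a greenhouse. Test chemicals, formulated with surfactant in non-phytotoxic solvent, were sprayed on soil preemergence or on 2-10 cm, one- to two-leaf plants postemergence.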

[6] = test system: blackgrass; test: Test C postemergence; format: in vivo, Alopecurus myosuroides; details: for Blackgrass plant response rating / Plant response rating, Blackgrass: scale 0 to 100 (0 no effect, 100 complete control)
Description: (§3) Seeds of plant species selected from blackgrass (Alopecurus myosuroides), Italian ryegrass (Lolium multiflorum), wheat, winter (winter wheat, Triticum aestivum), galium (catchweed bedstraw, Galium aparine), corn (Zea mays), large (Lg) crabgrass (Digitaria sanguinalis), giant foxtail (Setaria faberii), johnsongrass (Sorghum halepense), lambsquarters (Chenopodium album), morningglory (Ipomoea coccinea), yellow nutsedge (Cyperus esculentus), pigweed (Amaranthus retroflexus), ragweed (common ragweed, Ambrosia elatior), soybean (Glycine max), barnyardgrass (Echinochloa crus-galli), oilseed rape (Brassica napus), waterhemp (common waterhemp, Amaranthus rudis), kochia (Kochia scoparia), wild oat (Avena fatua), surinam grass (Brachiaria decumbens), foxtail, green (green foxtail, Setaria viridis), goosegrass (Eleusine indica), bromegrass, downy (downy bromegrass, Bromus tectorum), nightshade (eastern black nightshade, Solanum ptycanthum), cocklebur (common cocklebur, Xanthium strumarium), cupgrass, woolly (woolly cupgrass, Eriochloa villosa), bermudagrass (Cynodon dactylon), sunflower, (common oilseed sunflower, Helianthus annuus), Russian thistle (Salsola kali), and velvetleaf (Abutilon theophrasti) were planted into a blend of loam soil and sand and treated preemergence with test chemicals formulated in a non-phytotoxic solvent mixture which included a surfactant.
(§4) At the same time, plants selected from these crop and weed species and also barley, winter (winter barley, Hordeum vulgare), windgrass (Apera spica-venti), chickweed (common chickweed, Stellaria media), deadnettle (henbit deadnettle, Lamium amplexicaule), and canarygrass (littleseed canarygrass, Phalaris minor) were planted in pots containing Redi-Earth® planting medium (Scotts Company, 14111 Scottslawn Road, Marysville, Ohio 43041) comprising spaghnum peat moss, vermiculite, wetting agent and starter nutrients and treated with postemergence applications of test chemicals formulated in the same manner. Plants ranged in height from 2 to 18 cm (1- to 4-leaf stage) for postemergence treatments. Treated plants and controls were maintained in a greenhouse for 13 to 15 days, after which time all species were compared to controls and visually evaluated. Plant response ratings, summarized in Table C, are based on a scale of 0 to 100 where 0 is no effect and 100 is complete control. A dash (-) response means no test result.

[7] = test system: barnyardgrass; test: Test A preemergence; format: in vivo, Echinochloa crus-galli; details: for Barnyardgrass plant response rating: 500 g ai/ha
Outline: as §2

[8] = test system: galium; test: Test C postemergence; format: in vivo, Galium aparine; details: for Galium plant response rating / Plant response rating, Galium: scale 0 to 100 (0 no effect, 100 complete control)
Description: as §3, §4

[9] = test system: ragweed; test: Test C postemergence; format: in vivo, Ambrosia elatior; details: for Ragweed plant response rating / Plant response rating, Ragweed: scale 0 to 100 (0 no effect, 100 complete control)
Outline: as §1

[10] = test system: barnyardgrass; test: Test A postemergence; format: in vivo, Echinochloa crus-galli; details: 0 to 100 scale where 0 is no effect and 100 is complete control
Outline: as §2

[11] = test system: corn; test: Test A preemergence; format: in vivo, Zea mays; details: for Corn plant response rating: 500 g ai/ha
Outline: as §2

[12] = 16 g ai/ha, postemergence, 0 is no effect, 100 is complete control
[13] = 31 g ai/ha, postemergence, visual rating, 13 to 15 days
[14] = 125 g ai/ha, postemergence, visual rating
[15] = Postemergence, 62 g ai/ha, 13 to 15 days
[16] = 0 to 100 scale where 0 is no effect and 100 is complete control
[17] = Postemergence, 31 g ai/ha, 13 to 15 days
[18] = 16 g ai/ha, postemergence, visual rating, 13 to 15 days
[19] = 125 g ai/ha, 0 to 100 scale where 0 is no effect and 100 is complete control
[20] = 0 to 100 scale, 0 no effect, 100 complete control, approx. 10 days

Structure (SMILES): Clc1cnc(Oc2cccc(Br)c2-n2cc(Cl)cn2)nc1 [Compound 221]
- Plant response rating (0 to 100), Lambsquarters [1, 12]: 15
- Lambsquarters plant response rating [1, 13]: 60
- Plant response rating, Lambsquarters [1, 14]: 65
- Plant response rating, Lambsquarters [1, 15]: 50
- Plant response rating (0 to 100), Soybean [2, 12]: 30
- Soybean plant response rating [2, 13]: 55
- Plant response rating, Soybean [2, 14]: 80
- Plant response rating, Soybean [2, 15]: 65
- Plant response rating (0 to 100), Foxtail, Giant [3, 12]: 0
- Foxtail, Giant plant response rating [3, 13]: 5
- Plant response rating, Foxtail, Giant [3, 14]: 5
- Plant response rating, Foxtail, Giant [3, 15]: 5
- Plant response rating (0 to 100), Velvetleaf [4, 12]: 35
- Velvetleaf plant response rating [4, 13]: 35
- Plant response rating, Velvetleaf [4, 14]: 75
- Plant response rating, Velvetleaf [4, 15]: 45
- Wheat plant response rating [5]: 0
- Plant response rating, Wheat [5]: 30
- Plant response rating (0 to 100), Blackgrass [6, 12]: 0
- Blackgrass plant response rating [6, 13]: 0
- Plant response rating, Blackgrass [6, 14]: 5
- Plant response rating, Blackgrass [6, 15]: 5
- Barnyardgrass plant response rating (0 to 100 scale, 0 is no effect, 100 is complete control) ([7]; 125 g ai/ha): 10
- Barnyardgrass plant response rating [7, 16]: 90
- Plant response rating (0 to 100), Galium [8, 12]: 60
- Galium plant response rating [8, 13]: 55
- Plant response rating, Galium [8, 14]: 90
- Plant response rating, Galium [8, 15]: 55
- Plant response rating (0 to 100), Ragweed [9, 12]: 5
- Ragweed plant response rating [9, 13]: 5
- Plant response rating, Ragweed [9, 14]: 10
- Plant response rating, Ragweed [9, 15]: 20
- Barnyardgrass plant response rating ([10]; 125 g ai/ha): 50
- Plant response rating, Barnyardgrass ([10]; 500 g ai/ha): 100
- Corn plant response rating (0 to 100 scale) ([11]; 125 g ai/ha): 0
- Corn plant response rating [11, 16]: 0

Structure (SMILES): FC(F)c1cnn(-c2c(Br)cccc2Oc2ncc(Cl)cn2)c1 [Compound 232]
- Plant response rating (0 to 100), Lambsquarters [1, 12]: 55
- Lambsquarters plant response rating [1, 13]: 60
- Plant response rating, Lambsquarters [1, 14]: 75
- Plant response rating, Lambsquarters [1, 15]: 70
- Plant response rating (0 to 100), Soybean [2, 12]: 30
- Soybean plant response rating [2, 13]: 55
- Plant response rating, Soybean [2, 14]: 75
- Plant response rating, Soybean [2, 15]: 70
- Plant response rating (0 to 100), Foxtail, Giant [3, 12]: 5
- Foxtail, Giant plant response rating [3, 13]: 5
- Plant response rating, Foxtail, Giant [3, 14]: 15
- Plant response rating, Foxtail, Giant [3, 15]: 5
- Plant response rating (0 to 100), Velvetleaf [4, 12]: 35
- Velvetleaf plant response rating [4, 13]: 60
- Plant response rating, Velvetleaf [4, 14]: 65
- Plant response rating, Velvetleaf [4, 15]: 30
- Wheat plant response rating [5]: 20
- Plant response rating, Wheat [5]: 50
- Plant response rating (0 to 100), Blackgrass [6, 12]: 10
- Blackgrass plant response rating [6, 13]: 0
- Plant response rating, Blackgrass [6, 14]: 25
- Plant response rating, Blackgrass [6, 15]: 5
- Barnyardgrass plant response rating (0 to 100 scale, 0 is no effect, 100 is complete control) ([7]; 125 g ai/ha): 60
- Barnyardgrass plant response rating [7, 16]: 100
- Plant response rating (0 to 100), Galium [8, 12]: 65
- Galium plant response rating [8, 13]: 70
- Plant response rating, Galium [8, 14]: 95
- Plant response rating, Galium [8, 15]: 80
- Plant response rating (0 to 100), Ragweed [9, 12]: 25
- Ragweed plant response rating [9, 13]: 35
- Plant response rating, Ragweed [9, 14]: 60
- Plant response rating, Ragweed [9, 15]: 50
- Barnyardgrass plant response rating ([10]; 125 g ai/ha): 30
- Plant response rating, Barnyardgrass ([10]; 500 g ai/ha): 90
- Corn plant response rating (0 to 100 scale) ([11]; 125 g ai/ha): 0
- Corn plant response rating [11, 16]: 60

Structure (SMILES): FC(F)Oc1cnn(-c2ccccc2Oc2ncc(Cl)cn2)c1 [Compound 98]
- Plant response rating (0 to 100), Lambsquarters ([1]; 125 g ai/ha, postemergence): 98
- Plant response rating, Lambsquarters [1, 17]: 35
- Plant response rating, Lambsquarters ([1]; Postemergence, 62 g ai/ha): 80
- Plant response rating (0 to 100), Soybean ([2]; 125 g ai/ha, postemergence): 90
- Plant response rating, Soybean [2, 17]: 40
- Plant response rating, Soybean ([2]; Postemergence, 62 g ai/ha): 60
- Foxtail, Giant plant response rating [3, 18]: 5
- Plant response rating (0 to 100), Foxtail, Giant ([3]; 125 g ai/ha, postemergence): 10
- Plant response rating, Foxtail, Giant [3, 17]: 5
- Plant response rating, Foxtail, Giant ([3]; Postemergence, 62 g ai/ha): 5
- Plant response rating (0 to 100), Velvetleaf ([4]; 125 g ai/ha, postemergence): 90
- Plant response rating, Velvetleaf [4, 17]: 50
- Plant response rating, Velvetleaf ([4]; Postemergence, 62 g ai/ha): 70
- Plant response rating, Wheat [5]: 60
- Blackgrass plant response rating [6, 18]: 0
- Plant response rating (0 to 100), Blackgrass ([6]; 125 g ai/ha, postemergence): 20
- Plant response rating, Blackgrass [6, 17]: 5
- Plant response rating, Blackgrass ([6]; Postemergence, 62 g ai/ha): 30
- Plant response rating, Barnyardgrass [7, 19]: 50
- Barnyardgrass plant response rating [7, 20]: 100
- Galium plant response rating [8, 18]: 50
- Plant response rating (0 to 100), Galium ([8]; 125 g ai/ha, postemergence): 80
- Plant response rating, Galium [8, 17]: 60
- Plant response rating, Galium ([8]; Postemergence, 62 g ai/ha): 75
- Plant response rating (0 to 100), Ragweed ([9]; 125 g ai/ha, postemergence): 40
- Plant response rating, Ragweed [9, 17]: 10
- Plant response rating, Ragweed ([9]; Postemergence, 62 g ai/ha): 30
- Plant response rating, Barnyardgrass ([10]; 125 g ai/ha): 80
- Plant response rating, Barnyardgrass ([10]; 500 g ai/ha): 90
- Plant response rating, Corn [11, 19]: 0
- Corn plant response rating [11, 20]: 10
